Measurements from US11284615B2, “Cryopreservation using sucralose” (East Carolina University, priority 2015, dated 2022).

Legend:
[1] = test system: red blood cells; assay: Percent hemolysis of red blood cells on addition of sucralose (no freezing); assay type: cell-based, sheep; conditions: measured against PBS buffer and triton X
Procedure: (§1) Experiments that measure the percent hemolysis of red blood cells before and after treatment were carried out using sheep blood.
(§2) We measured absorption at three wavelengths (450 nm, 500 nm and 525 nm, shown in FIGS. 10, 11 and 12, respectively). […] That is why the error bars are smallest for those.

[2] = Differential scanning calorimetry of unilamellar DPPC vesicles with added sugar; assay type: physicochemical; conditions: for cooperativity of the transition (peak width at half peak height, PWHH) / enthalpy of main phase transition / main phase transition temperature of DPPC liposomes: increasing mole ratio of sugar to lipid; for main phase transition temperature of DPPC liposomes: DSC 30-60 °C at 2 °C/min, DPPC alone ~42 °C
Procedure: Methods: Unilamellar vesicles were prepared by extrusion. Sucrose or sucralose was added to the vesicles to achieve the desired mole ratio after vesicle formation. Differential scanning calorimetry was used to examine the main phase behavior of the liposome bilayer. Thermograms were obtained in the heating and cooling directions between 30° C. and 60° C. at a rate of 2° C./min.

[3] = test system: mouse myoblasts; assay: Cytotoxicity of sucralose on nucleated cells; assay type: cell-based
Text: Protection against hemolysis of red blood cells in the presence of increasing amounts of sucralose was examined at 3.5×(˜0.7 billion cells/ml) and 7×(˜1.4 billion cells/ml) the original red blood cell count, and are shown in FIGS. 15A and 15B, respectively. […] In addition, studies on the cytotoxicity of sucralose on nucleated cells, mouse myoblasts, indicate that sucralose concentrations in excess of about 2.5% w/v may have toxic effects.

[4] = test system: red blood cells; assay: Percent hemolysis of red blood cells frozen with sucralose and thawed; assay type: cell-based, sheep; conditions: for protective effect compared with 20% glycerol solution: equivalent volume of 20% v/v glycerol, blood frozen for 48 hours; for protection during freezing (hemolysis): measured against triton X and PBS
Procedure: as §1
This is data from blood frozen for 48 hours.
as §2

Structure (SMILES) | induction of hemolysis on addition [1] | shoulders in thermograms (indicative of phase separation) ([2]; cooling cycle) | shoulders in thermograms (indicative of phase separation) ([2]; heating cycle) | cooperativity of the transition (peak width at half peak height, PWHH) [2] | enthalpy of main phase transition [2] | main phase transition temperature of DPPC liposomes [2] | sucralose concentration that may have toxic effects [3] | protective effect compared with 20% glycerol solution [4] | protective effect compared with 20% glycerol solution ([4]; listed as sugar) | protection during freezing (hemolysis) ([4]; frozen and thawed) | protection during freezing (hemolysis) ([4]; frozen and thawed, listed as sugar) | sucralose concentration resulting in decreased efficacy in protecting red blood cells from hemolysis ([4]; frozen and thawed, ~0.7 and ~1.4 billion cells/ml) | amount of sucralose required for cryopreservation of red blood cells ([4]; red blood cell count about 0.2 to 1.4 billion cells/ml)
OC[C@H]1O[C@H](O[C@]2(CCl)O[C@H](CCl)[C@@H](O)[C@@H]2O)[C@H](O)[C@@H](O)[C@H]1Cl [sucralose, 1,6-Dichloro-1,6-dideoxy-β-D-fructofuranosyl-4-chloro-4-deoxy-α-D-galactopyranoside] | does not induce hemolysis | not seen | a shoulder is seen in some thermograms | drastic decrease in cooperativity | remained essentially unchanged | decreased significantly | above 2.5 % w/v | better than using an equivalent volume of a 20% glycerol solution | performs better than a 20% v/v solution of glycerol | substantially reduces hemolysis | protective effect | above 2.5 % w/v | increases with an increase of red blood cell concentration
OC[C@H]1O[C@@](CO)(O[C@H]2O[C@H](CO)[C@@H](O)[C@H](O)[C@H]2O)[C@@H](O)[C@@H]1O [sucrose] |  | shoulders are again observed | shoulders appear | decrease in cooperativity | remains relatively stable | little change |  |  |  |  |  |  | 
